Tested on: GST1 gene
Experiment: GST1 gene expression in the mesenteron after artificial diet containing gossypol
Format: in vivo, cotton bollworm
Settings: 5-day old larvae, 1 day, artificial diet with 1 mg/g gossypol (FIG. 7A)
Procedure: FIG. 7A show the change in GST 1 gene expression in the mesenteron of 5-day old cotton bollworm with the same growth vigor 1 day after eating artificial diet containing 1 mg/g gossypol. Lane 1 and 2 are cotton bollworm eating artificial diet with or without 1 mg/g gossypol respectively.

`Cc1cc2c(C(C)C)c(O)c(O)c(C=O)c2c(O)c1-c1c(C)cc2c(C(C)C)c(O)c(O)c(C=O)c2c1O` [gossypol] was tested, and the “GST1 gene expression in the mesenteron” value was “no significant effect”.
